{"source": "paper PMC8634768", "about": "(ChemistryOpen, 2021)", "key": {"Hsp90α": {"biological_target": "Hsp90α (Homo sapiens, UniProt P07900)", "assay": "fluorescence polarization competition with FITC-geldanamycin", "format": "binding"}, "PDHK1": {"biological_target": "PDHK1 (Homo sapiens, UniProt Q15118)", "sequence (Q15118 29-436)": "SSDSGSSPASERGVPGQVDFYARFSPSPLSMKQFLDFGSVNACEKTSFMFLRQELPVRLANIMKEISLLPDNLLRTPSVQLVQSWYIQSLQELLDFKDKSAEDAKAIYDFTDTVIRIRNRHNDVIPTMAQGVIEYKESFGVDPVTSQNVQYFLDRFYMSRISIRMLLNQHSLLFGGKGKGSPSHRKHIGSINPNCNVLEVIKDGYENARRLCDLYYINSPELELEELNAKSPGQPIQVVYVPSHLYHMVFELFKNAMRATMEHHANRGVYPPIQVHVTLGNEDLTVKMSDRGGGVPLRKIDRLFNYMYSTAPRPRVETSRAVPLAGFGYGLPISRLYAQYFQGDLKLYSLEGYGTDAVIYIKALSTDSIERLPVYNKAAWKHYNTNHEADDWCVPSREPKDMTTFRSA", "assay": "HotSpot […]-ATP radiometric filter-binding kinase assay", "format": "biochemical"}}, "note": "pIC50: −log10 of the molar value.", "data": [{"compound": "CCCS(=O)(=O)Nc1ccc(F)c(NC(=O)c2nnn(-c3cc(C(C)C)c(O)cc3O)c2-c2ccncc2)c1F", "note": "[4d, N‐[2,6‐difluoro‐3‐(propylsulfonamido)phenyl]‐1‐(2,4‐dihydroxy‐5‐isopropylphenyl)‐5‐(pyridin‐4‐yl)‐1H‐1,2,3‐triazole‐4‐carboxamide]", "values": [{"measurement": "pIC50", "setting": "Hsp90α", "result": 7.52}, {"measurement": "pIC50", "setting": "PDHK1", "result": 4.42}]}, {"compound": "O=C1Nc2ccc(I)cc2C1=Cc1cc(Br)c(O)c(Br)c1", "note": "[GW5074, reference compound]", "values": [{"measurement": "pIC50", "setting": "PDHK1", "result": 5.15}]}, {"compound": "CCS(=O)(=O)Nc1ccc(F)c(NC(=O)c2nnn(-c3cc(C(C)C)c(O)cc3O)c2-c2ccncc2)c1F", "note": "[4c, 1‐(2,4‐dihydroxy‐5‐isopropylphenyl)‐N‐[3‐(ethylsulfonamido)‐2,6‐difluorophenyl]‐5‐(pyridin‐4‐yl)‐1H‐1,2,3‐triazole‐4‐carboxamide]", "values": [{"measurement": "pIC50", "setting": "Hsp90α", "result": 5.96}]}, {"compound": "CC(C)c1cc(-n2nnc(C(=O)Nc3cccc(NS(C)(=O)=O)c3)c2-c2ccncc2)c(O)cc1O", "note": "[4a, 1‐(2,4‐dihydroxy‐5‐isopropylphenyl)‐N‐[3‐(methylsulfonamido)phenyl]‐5‐(pyridin‐4‐yl)‐1H‐1,2,3‐triazole‐4‐carboxamide]", "values": [{"measurement": "pIC50", "setting": "Hsp90α", "result": 8.15}, {"measurement": "pIC50", "setting": "PDHK1", "result": 4.54}]}, {"compound": "CC(C)c1cc(-n2nnc(C(=O)Nc3c(F)ccc(NS(C)(=O)=O)c3F)c2-c2ccncc2)c(O)cc1O", "note": "[4b, N‐[2,6‐difluoro‐3‐(methylsulfonamido)phenyl]‐1‐(2,4‐dihydroxy‐5‐isopropylphenyl)‐5‐(pyridin‐4‐yl)‐1H‐1,2,3‐triazole‐4‐carboxamide]", "values": [{"measurement": "pIC50", "setting": "Hsp90α", "result": 5.77}]}]}
